Test results reported in paper PMC5218480 (PLoS ONE, 2017).

System: MV-4-11 cells
Experiment: Gene expression microarray analysis (Affymetrix PrimeView) and GSEA
Assay type: cell-based, human
Design: RFU PODN (11730768_x_at) / Fold change /veh PODN (11730768_x_at) / RFU LINC00158 (11744669_a_at) / Fold change /veh LINC00158 (11744669_a_at) / RFU DUSP10 (11751237_a_at) / Fold change /veh DUSP10 (11751237_a_at) / RFU ID3 (11757404_x_at) / Fold change /veh ID3 (11757404_x_at) / RFU PLEKHG5 (11737974_s_at) / Fold change /veh PLEKHG5 (11737974_s_at) / RFU LRRC4B (11730491_at) / Fold change /veh LRRC4B (11730491_at) / RFU GIMAP4 (11747438_a_at) / Fold change /veh GIMAP4 (11747438_a_at) / RFU KRT8 (11758183_x_at) / Fold change /veh KRT8 (11758183_x_at) / RFU CNN1 (11734310_a_at) / Fold change /veh CNN1 (11734310_a_at) / RFU VPS37D (11726825_at) / Fold change /veh VPS37D (11726825_at) / RFU C10orf10 (11716522_x_at) / Fold change /veh C10orf10 (11716522_x_at) / RFU KIR2DL2 /// KIR2DL4 /// KIR2DL5A /// KIR2DL5B /// KIR2DS1 /// KIR2DS2 /// KIR2DS3 /// KIR2DS4 /// KIR3DL3 /// KIR3DL3 /// KIR3DS1 (11738374_at) / Fold change /veh KIR2DL2 /// KIR2DL4 /// KIR2DL5A /// KIR2DL5B /// KIR2DS1 /// KIR2DS2 /// KIR2DS3 /// KIR2DS4 /// KIR3DL3 /// KIR3DL3 /// KIR3DS1 (11738374_at) / RFU C1QL1 (11718748_at) / Fold change /veh C1QL1 (11718748_at) / RFU TMPRSS4 (11747572_a_at) / Fold change /veh TMPRSS4 (11747572_a_at) / RFU HAMP (11756126_x_at) / Fold change /veh HAMP (11756126_x_at) / RFU RNFT2 (11725882_a_at) / Fold change /veh RNFT2 (11725882_a_at) / RFU NR4A2 (11747474_a_at) / Fold change /veh NR4A2 (11747474_a_at) / RFU ABCC12 (11746883_a_at) / Fold change /veh ABCC12 (11746883_a_at) / RFU TMEM136 (11760407_x_at) / Fold change /veh TMEM136 (11760407_x_at) / RFU CLDN22 /// WWC2 (11732394_at) / Fold change /veh CLDN22 /// WWC2 (11732394_at) / RFU HLA-DPB1 (11760878_x_at) / Fold change /veh HLA-DPB1 (11760878_x_at) / RFU SPINT1 (11716480_a_at) / Fold change /veh SPINT1 (11716480_a_at) / RFU GAP43 (11754022_s_at) / Fold change /veh GAP43 (11754022_s_at) / RFU A4GNT (11735810_at) / Fold change /veh A4GNT (11735810_at) / RFU PRB3 (11715151_x_at) / Fold change /veh PRB3 (11715151_x_at) / RFU TUBB4B (11761932_at) / Fold change /veh TUBB4B (11761932_at) / RFU CAPN14 (11732068_a_at) / Fold change /veh CAPN14 (11732068_a_at) / RFU TMCC2 (11721928_a_at) / Fold change /veh TMCC2 (11721928_a_at) / RFU IRGQ (11745062_a_at) / Fold change /veh IRGQ (11745062_a_at) / RFU FAM174B (11720279_a_at) / Fold change /veh FAM174B (11720279_a_at) / RFU TMPRSS4 (11748680_a_at) / Fold change /veh TMPRSS4 (11748680_a_at) / RFU FAM212B (11763350_a_at) / Fold change /veh FAM212B (11763350_a_at) / RFU PLEKHG5 (11743358_a_at) / Fold change /veh PLEKHG5 (11743358_a_at) / RFU ZSCAN30 (11745921_a_at) / Fold change /veh ZSCAN30 (11745921_a_at) / RFU CMKLR1 (11741424_a_at) / Fold change /veh CMKLR1 (11741424_a_at) / RFU LOC101060620 /// MAPK8IP1 (11723275_at) / Fold change /veh LOC101060620 /// MAPK8IP1 (11723275_at) / RFU SPTSSB (11747773_x_at) / Fold change /veh SPTSSB (11747773_x_at) / RFU PRSS12 (11739890_at) / Fold change /veh PRSS12 (11739890_at) / RFU BIN1 (11741810_x_at) / Fold change /veh BIN1 (11741810_x_at) / RFU WNT11 (11732464_a_at) / Fold change /veh WNT11 (11732464_a_at) / RFU C10orf10 (11716521_a_at) / Fold change /veh C10orf10 (11716521_a_at) / RFU C5orf56 (11738089_at) / Fold change /veh C5orf56 (11738089_at) / RFU CYB561 (11721691_x_at) / Fold change /veh CYB561 (11721691_x_at) / RFU ANKRD19P (11752326_a_at) / Fold change /veh ANKRD19P (11752326_a_at) / RFU OR2T12 /// OR2T33 /// OR2T8 (11738714_s_at) / Fold change /veh OR2T12 /// OR2T33 /// OR2T8 (11738714_s_at) / RFU VCAN (11748164_a_at) / Fold change /veh VCAN (11748164_a_at) / RFU JSRP1 (11732532_at) / Fold change /veh JSRP1 (11732532_at) / RFU KRTAP10-11 (11738290_x_at) / Fold change /veh KRTAP10-11 (11738290_x_at) / RFU MYO3A (11730013_a_at) / Fold change /veh MYO3A (11730013_a_at) / RFU EBF3 (11725865_a_at) / Fold change /veh EBF3 (11725865_a_at) / RFU CAMK2N1 (11719241_x_at) / Fold change /veh CAMK2N1 (11719241_x_at) / RFU C5orf56 (11738088_a_at) / Fold change /veh C5orf56 (11738088_a_at) / RFU OLFML3 (11715873_a_at) / Fold change /veh OLFML3 (11715873_a_at) / RFU LOC100653217 /// NTM (11731650_a_at) / Fold change /veh LOC100653217 /// NTM (11731650_a_at) / RFU MAPK11 (11762145_a_at) / Fold change /veh MAPK11 (11762145_a_at) / RFU FIZ1 (11724087_x_at) / Fold change /veh FIZ1 (11724087_x_at) / RFU OASL (11726364_x_at) / Fold change /veh OASL (11726364_x_at) / RFU SOX15 (11748057_x_at) / Fold change /veh SOX15 (11748057_x_at) / RFU CD79A (11719716_a_at) / Fold change /veh CD79A (11719716_a_at) / RFU HIST1H1D (11736915_at) / Fold change /veh HIST1H1D (11736915_at) / RFU CASKIN2 (11723855_a_at) / Fold change /veh CASKIN2 (11723855_a_at) / RFU LOC730098 (11760151_x_at) / Fold change /veh LOC730098 (11760151_x_at) / RFU OR4N2 (11742367_at) / Fold change /veh OR4N2 (11742367_at) / RFU PRRT2 (11749266_a_at) / Fold change /veh PRRT2 (11749266_a_at) / RFU SNX32 (11753110_a_at) / Fold change /veh SNX32 (11753110_a_at) / RFU CDHR5 (11726645_a_at) / Fold change /veh CDHR5 (11726645_a_at) / RFU RCAN1 (11760418_a_at) / Fold change /veh RCAN1 (11760418_a_at) / RFU FAM167A (11723789_a_at) / Fold change /veh FAM167A (11723789_a_at) / RFU FAM26E (11764081_at) / Fold change /veh FAM26E (11764081_at) / RFU ISYNA1 (11749810_s_at) / Fold change /veh ISYNA1 (11749810_s_at) / RFU ACY1 (11761880_at) / Fold change /veh ACY1 (11761880_at) / RFU 11764098_at / Fold change /veh 11764098_at / RFU SAMD14 (11745864_x_at) / Fold change /veh SAMD14 (11745864_x_at) / RFU NPB (11741838_a_at) / Fold change /veh NPB (11741838_a_at) / RFU TMPRSS6 (11731388_a_at) / Fold change /veh TMPRSS6 (11731388_a_at) / RFU KRTAP10-2 (11738614_at) / Fold change /veh KRTAP10-2 (11738614_at) / RFU ARHGAP8 /// PRR5-ARHGAP8 (11727945_x_at) / Fold change /veh ARHGAP8 /// PRR5-ARHGAP8 (11727945_x_at) / RFU KRTAP5-7 /// NADSYN1 (11734609_at) / Fold change /veh KRTAP5-7 /// NADSYN1 (11734609_at) / RFU RASL12 (11751679_a_at) / Fold change /veh RASL12 (11751679_a_at) / RFU CDKN2B (11736163_a_at) / Fold change /veh CDKN2B (11736163_a_at) / RFU PRF1 (11729649_at) / Fold change /veh PRF1 (11729649_at) / RFU, ZNF638 /// ZNF638-IT1 / Fold change vs veh, ZNF638 /// ZNF638-IT1 / RFU, PANK3 / Fold change vs veh, PANK3 / RFU, SH3YL1 / Fold change vs veh, SH3YL1 / RFU, ZEB2 / Fold change vs veh, ZEB2 / RFU, NRIP1 / Fold change vs veh, NRIP1 / RFU, PTTG1IP / Fold change vs veh, PTTG1IP / RFU, CAPN2 / Fold change vs veh, CAPN2 / RFU, MED14 / Fold change vs veh, MED14 / RFU, SNORA58 / Fold change vs veh, SNORA58 / RFU, C1orf63 / Fold change vs veh, C1orf63 / RFU, LRRFIP1 / Fold change vs veh, LRRFIP1 / RFU, NDUFAF7 / Fold change vs veh, NDUFAF7 / RFU, SLC12A2 / Fold change vs veh, SLC12A2 / RFU, IBTK / Fold change vs veh, IBTK / RFU, ESF1 / Fold change vs veh, ESF1 / Fold change vs veh, TMEM50B / RFU, TAOK1 / Fold change vs veh, TAOK1 / RFU, ACBD3 / Fold change vs veh, ACBD3 / RFU, TMA16 / Fold change vs veh, TMA16 / RFU, RWDD3 / Fold change vs veh, RWDD3 / RFU, BCAT1 / Fold change vs veh, BCAT1 / RFU, EDEM3 / Fold change vs veh, EDEM3 / RFU, TMEM33 / Fold change vs veh, TMEM33 / RFU, WDR75 / Fold change vs veh, WDR75 / RFU, AHCTF1 / Fold change vs veh, AHCTF1 / RFU, TFRC / Fold change vs veh, TFRC / RFU, ZDHHC17 / Fold change vs veh, ZDHHC17 / RFU, NOM1 / Fold change vs veh, NOM1 / RFU, ARL8B / Fold change vs veh, ARL8B / RFU, ZBTB11 / Fold change vs veh, ZBTB11 / RFU, TAMM41 / Fold change vs veh, TAMM41 / RFU, KIAA1704 /// LOC100996395 / Fold change vs veh, KIAA1704 /// LOC100996395 / RFU, ING1 / Fold change vs veh, ING1 / RFU, TRMT61B / Fold change vs veh, TRMT61B / RFU, FUBP3 / Fold change vs veh, FUBP3 / RFU, TP53 / Fold change vs veh, TP53 / RFU, TNKS2 / Fold change vs veh, TNKS2 / RFU, ZFP14 / Fold change vs veh, ZFP14 / RFU, ACTR2 / Fold change vs veh, ACTR2 / RFU, PPP3R1 / Fold change vs veh, PPP3R1 / RFU, PIK3R1 / Fold change vs veh, PIK3R1 / RFU, HNRNPA1 / Fold change vs veh, HNRNPA1 / RFU, RNF170 / Fold change vs veh, RNF170 / RFU, ZNF28 / Fold change vs veh, ZNF28 / RFU, RNGTT / Fold change vs veh, RNGTT / RFU, OGT / Fold change vs veh, OGT / RFU, BRD1 / Fold change vs veh, BRD1 / RFU, MARS / Fold change vs veh, MARS / RFU, ZNF655 / Fold change vs veh, ZNF655 / RFU, FAHD1 / Fold change vs veh, FAHD1 / RFU, BDP1 / Fold change vs veh, BDP1 / RFU, LRRCC1 / Fold change vs veh, LRRCC1 / RFU, ARID1A / Fold change vs veh, ARID1A / RFU, ZNF146 / Fold change vs veh, ZNF146 / RFU, ZNF330 / Fold change vs veh, ZNF330 / RFU, GPN3 / Fold change vs veh, GPN3 / RFU, C9orf123 / Fold change vs veh, C9orf123 / RFU, N4BP2L2 / Fold change vs veh, N4BP2L2 / RFU, ARFIP1 / Fold change vs veh, ARFIP1 / RFU, FAM179B / Fold change vs veh, FAM179B / RFU, BCL10 / Fold change vs veh, BCL10 / RFU, UHRF1BP1L / Fold change vs veh, UHRF1BP1L / RFU, BET1 / Fold change vs veh, BET1 / RFU, CNOT2 / Fold change vs veh, CNOT2 / RFU, ZNF268 / Fold change vs veh, ZNF268 / Fold change vs veh, ZNF507 / RFU, DGCR2 / Fold change vs veh, DGCR2 / RFU, WDSUB1 / Fold change vs veh, WDSUB1 / Fold change vs veh, HSP90B1 /// MIR3652 / RFU, ADSS / Fold change vs veh, ADSS / RFU, GK / Fold change vs veh, GK / RFU, ZNF148 / Fold change vs veh, ZNF148 / RFU, TAF9 / Fold change vs veh, TAF9 / RFU, SLC1A5 / Fold change vs veh, SLC1A5 / RFU, SLMO2 / Fold change vs veh, SLMO2 / RFU, ABCC4 / Fold change vs veh, ABCC4 / RFU, LOC101060439 /// RAP1B / Fold change vs veh, LOC101060439 /// RAP1B / RFU, RFX7 / Fold change vs veh, RFX7 / RFU, GTPBP10 / Fold change vs veh, GTPBP10 / RFU, CNEP1R1 / Fold change vs veh, CNEP1R1 / RFU, BIVM-ERCC5 /// ERCC5 / Fold change vs veh, BIVM-ERCC5 /// ERCC5 / RFU, ILF3 / Fold change vs veh, ILF3 / RFU 11762660_at / Fold change /veh 11762660_at / RFU VCAN (11757783_s_at) / Fold change /veh VCAN (11757783_s_at) / RFU DDX43 (11728927_at) / Fold change /veh DDX43 (11728927_at) / RFU KRT8 (11758188_x_at) / Fold change /veh KRT8 (11758188_x_at) / RFU NKD1 (11759106_at) / Fold change /veh NKD1 (11759106_at) / RFU SRD5A1 (11742802_a_at) / Fold change /veh SRD5A1 (11742802_a_at) / RFU TPSAB1 /// TPSB2 (11721975_s_at) / Fold change /veh TPSAB1 /// TPSB2 (11721975_s_at) / RFU GSTM3 (11746129_a_at) / Fold change /veh GSTM3 (11746129_a_at) / RFU IL23R (11737362_x_at) / Fold change /veh IL23R (11737362_x_at) / RFU TMEM51 (11727254_a_at) / Fold change /veh TMEM51 (11727254_a_at) / RFU PIWIL2 (11732686_x_at) / Fold change /veh PIWIL2 (11732686_x_at) / RFU ORM1 (11744905_x_at) / Fold change /veh ORM1 (11744905_x_at) / RFU CCDC152 (11743942_at) / Fold change /veh CCDC152 (11743942_at) / RFU ECM1 (11717891_a_at) / Fold change /veh ECM1 (11717891_a_at) / RFU IL23R (11748794_a_at) / Fold change /veh IL23R (11748794_a_at) / RFU TNFAIP8L3 (11732012_x_at) / Fold change /veh TNFAIP8L3 (11732012_x_at) / RFU MBOAT4 (11741988_at) / Fold change /veh MBOAT4 (11741988_at) / RFU 11764193_at / Fold change /veh 11764193_at / RFU TMEM53 (11763286_at) / Fold change /veh TMEM53 (11763286_at) / RFU MAGEB2 (11727129_at) / Fold change /veh MAGEB2 (11727129_at) / RFU TMEM200A (11744735_a_at) / Fold change /veh TMEM200A (11744735_a_at) / RFU CCDC152 (11751479_a_at) / Fold change /veh CCDC152 (11751479_a_at) / RFU FAM211A (11726209_a_at) / Fold change /veh FAM211A (11726209_a_at) / RFU RGS16 (11746705_a_at) / Fold change /veh RGS16 (11746705_a_at) / RFU VCAN (11755009_s_at) / Fold change /veh VCAN (11755009_s_at) / RFU RHOB (11743442_s_at) / Fold change /veh RHOB (11743442_s_at) / RFU RGS16 (11720943_a_at) / Fold change /veh RGS16 (11720943_a_at) / RFU RGS16 (11720944_at) / Fold change /veh RGS16 (11720944_at) / RFU, VPS4B / Fold change vs veh, VPS4B / RFU, CREB1 / Fold change vs veh, CREB1 / RFU, DNAJC13 / Fold change vs veh, DNAJC13 / RFU, GNAQ / Fold change vs veh, GNAQ / RFU, CDK5R1 / Fold change vs veh, CDK5R1 / RFU, ZRANB3 / Fold change vs veh, ZRANB3 / RFU, CUL4A / Fold change vs veh, CUL4A / RFU, CCNY / Fold change vs veh, CCNY / RFU, UFL1 / Fold change vs veh, UFL1 / RFU, COG3 / Fold change vs veh, COG3 / RFU, DIAPH2 / Fold change vs veh, DIAPH2 / RFU, SKA2 / Fold change vs veh, SKA2 / RFU, AFF3 / Fold change vs veh, AFF3 / RFU, LMF1 / Fold change vs veh, LMF1 / RFU, IPO11 / Fold change vs veh, IPO11 / RFU, DFFB / Fold change vs veh, DFFB / RFU, FOXP1 / Fold change vs veh, FOXP1 / RFU, CARD8 / Fold change vs veh, CARD8 / RFU, STRN3 / Fold change vs veh, STRN3 / RFU, ADK / Fold change vs veh, ADK / RFU, RASSF2 / Fold change vs veh, RASSF2 / RFU, WIPF1 / Fold change vs veh, WIPF1 / RFU, LARP1B / Fold change vs veh, LARP1B / RFU, RASA1 / Fold change vs veh, RASA1 / RFU, RB1 / Fold change vs veh, RB1 / RFU, PPFIA1 / Fold change vs veh, PPFIA1 / RFU, MAT2A / Fold change vs veh, MAT2A / RFU, CCT5 / Fold change vs veh, CCT5 / RFU, WDR92 / Fold change vs veh, WDR92 / RFU, CUX1 / Fold change vs veh, CUX1 / RFU, TTC7A / Fold change vs veh, TTC7A / RFU, TMEM135 / Fold change vs veh, TMEM135 / RFU, DEPTOR / Fold change vs veh, DEPTOR / RFU, CPM / Fold change vs veh, CPM / RFU, DNAJB6 / Fold change vs veh, DNAJB6 / RFU, CACNA2D3 / Fold change vs veh, CACNA2D3 / RFU, DTX4 / Fold change vs veh, DTX4 / RFU, TFCP2 / Fold change vs veh, TFCP2 / RFU, GMCL1 /// GMCL1P1 / Fold change vs veh, GMCL1 /// GMCL1P1 / RFU, AEBP2 / Fold change vs veh, AEBP2 / RFU, SNHG1 /// SNORD22 /// SNORD25 /// SNORD26 /// SNORD27 /// SNORD28 /// SNORD29 /// SNORD31 / Fold change vs veh, SNHG1 /// SNORD22 /// SNORD25 /// SNORD26 /// SNORD27 /// SNORD28 /// SNORD29 /// SNORD31 / Fold change (Aza/veh), C12orf56 (ProbeSet 11735607_a_at) / Fold change (ACY-1035/veh), C12orf56 (ProbeSet 11735607_a_at) / Fold change (Aza/veh), FGFR1OP (ProbeSet 11751329_s_at) / Fold change (ACY-1035/veh), FGFR1OP (ProbeSet 11751329_s_at) / Fold change (Aza/veh), VPS36 (ProbeSet 11739960_a_at) / Fold change (ACY-1035/veh), VPS36 (ProbeSet 11739960_a_at) / RFU SYPL1 (11715823_x_at) / Fold change /veh SYPL1 (11715823_x_at) / RFU IGFBP7 (11715501_s_at) / Fold change /veh IGFBP7 (11715501_s_at) / RFU REEP3 (11722064_at) / Fold change /veh REEP3 (11722064_at) / RFU IGLL1 (11728026_x_at) / Fold change /veh IGLL1 (11728026_x_at): dose or concentration left out as unconfirmed
Settings: MV-4-11 cells, 48 hours

Nc1ccc(-c2cccs2)cc1NC(=O)c1ccc2c(c1)cc(C1CC1)n2CCN1CCOCC1 [ACY-1035]
Fold change /veh TPSAB1 /// TPSB2 (11721975_s_at): 0.95
